This note sets out measurements from patent publication US8541462B2, “Tetrahydrocarbazole derivatives as ligands of G-protein coupled receptors” (AEterna Zentaris GmbH, priority 2007, dated 2013).

The target in one data set is T1, LHRH receptor (endogenous GnRH receptor of alpha T3-1 cell line) (Mus musculus, UniProt Q01776).
T1 construct: alpha T3-1 cell line with endogenous GnRH receptor expression; endogenous in cells; host or cells: alpha T3-1 cells (intact cell suspension)
T1 sequence (Q01776 1-327): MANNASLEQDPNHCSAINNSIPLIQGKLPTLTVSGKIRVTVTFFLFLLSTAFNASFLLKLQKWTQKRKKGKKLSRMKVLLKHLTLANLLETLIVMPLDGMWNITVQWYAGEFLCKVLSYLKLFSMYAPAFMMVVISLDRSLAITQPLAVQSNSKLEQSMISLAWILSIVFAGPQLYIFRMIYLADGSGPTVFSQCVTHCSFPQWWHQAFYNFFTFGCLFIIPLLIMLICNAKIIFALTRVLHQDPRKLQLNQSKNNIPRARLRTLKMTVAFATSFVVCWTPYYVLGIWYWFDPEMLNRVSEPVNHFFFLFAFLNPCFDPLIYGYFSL
Put plainly: LHRH-receptor binding assay (displacement of [125I] cetrorelix on alpha T3-1 cells). The following applies: WO 2006/005484-substance 75 = 100%. As for the experimental part:
For LHRH receptor binding studies, an assay system using alpha T3-1 cell line with endogenous GnRH receptor expression was employed (Windle et al., Mol. Endocrinol. 1990, 4(4): 597-603).
Iodinated cetrorelix was used as a tracer with about 80% of peptide capable of specific receptor association.
For displacement binding assays, the cells were incubated with approximately 200 pM [^125l] cetrorelix and different concentrations of unlabeled test compounds as competitor. The cell suspension in binding medium was layered on top of silicon/paraffin oil, incubated for 60 min at 37° C. and separated by centrifugation. The tips of the tubes containing the cell pellet were cut off, subsequently cell pellet and supernatant were analyzed by gamma-radiation analysis.
The amount of unspecific binding was determined by including unlabeled cetrorelix at 1 μM final concentration and was typically ≦10% of total binding. IC50 values were calculated by using the GraphPad Prism analysis program (GraphPad Software Inc.).
A general note: Displacement assays read how much labelled ligand stays bound in the presence of the test substance.
For `CCC(C)[C@H](NC(=O)Cc1ccccc1F)C(=O)N[C@]1(C(=O)N[C@H](C(=S)NCc2ccncc2)C(C)CC)CCc2[nH]c3c(C(F)(F)F)cccc3c2C1` (stereo partly drawn) [Compound 60, (R)-3-{(S)-2-[2-(2-Fluoro-phenyl)-acetylamino]-3-methyl-pentanoylamino}-8-trifluoromethyl-2,3,4,9-tetrahydro-1H-carbazole-3-carboxylic acid {(S)-2-methyl-1-[(pyridin-4-ylmethyl)-thiocarbamoyl]-butyl}-amide], the “Normalized Affinity” value worked out at 247%.

Regarding `CCC(C)[C@H](NC(=O)Cc1ccccc1F)C(=O)N[C@]1(C(=O)N[C@H](C(=O)Nc2ccc(OC)cc2O)C(C)CC)CCc2[nH]c3c(C(F)(F)F)cccc3c2C1` (stereo partly drawn) [Compound 71, (R)-3-{(S)-2-[2-(2-Fluoro-phenyl)-acetylamino]-3-methyl-pentanoylamino}-8-trifluoromethyl-2,3,4,9-tetrahydro-1H-carbazole-3-carboxylic acid [(S)-1-(2-hydroxy-4-methoxy-phenylcarbarnoyl)-2-methyl-butyl]-amide], the “Normalized Affinity” value is 411%.

For `CCC(C)[C@H](NC(=O)Cc1ccccc1F)C(=O)N[C@]1(C(=O)N[C@H](C(=S)NCc2nnc(C)o2)C(C)CC)CCc2[nH]c3c(C(F)(F)F)cccc3c2C1` (stereo partly drawn) [compound 118, (R)-3-{(S)-2-[2-(2-Fluoro-phenyl)-acetylamino]-3-methyl-pentanoylamino}-8-trifluoromethyl-2,3,4,9-tetrahydro-1H-carbazole-3-carboxylic acid {(S)-2-methyl-1-[(5-methyl-[1,3,4]oxadiazol-2-ylmethyl)-thiocarbamoyl]-butyl}-amide], the “Normalized Affinity” value is reported as 285%.

Regarding `CCC(C)[C@H](NC(=O)Cc1ccccc1F)C(=O)N[C@]1(C(=O)N[C@H](C(=O)Nc2nnn(C(C)(C)C)n2)C(C)CC)CCc2[nH]c3c(C(F)(F)F)cccc3c2C1` (stereo partly drawn) [compound 178, (R)-3-{(S)-2-[2-(2-Fluoro-phenyl)-acetylamino]-3-methyl-pentanoylamino}-8-trifluoromethyl-2,3,4,9-tetrahydro-1H-carbazole-3-carboxylic acid [(S)-1-(2-tert-butyl-2H-tetrazol-5-ylcarbamoyl)-2-methyl-butyl]-amide], the “Normalized Affinity” value stood at 370%.

Test system in a further data set: not listed separately
Put plainly: Metabolic stability testing in liver microsomes. The class given is in vitro ADME. Particulars: mixed-gender human liver microsomes, 1 mg microsomal protein/mL, initial concentration 10 μM, 60 minutes at 37° C.; WO 2006/005484-substance 7 = 100%. As for the experimental part: Subcellular fractions of different tissues can be prepared easily by ultracentrifugation. Most commonly these are prepared from the liver of animals and human donors to gain information about the potential hepatic clearance of compounds (first-pass elimination of drugs). Human or animal (e.g. dog, mouse, rat) subcellular fraction like liver microsomes, or possibly the fraction called S9 have therefore become a very commonly and widely used as an in vitro model to investigate mainly cytochrome P450 dependent phase I (but also phase II) metabolism that takes place in the liver.
In order to reflect the standard proportion of the enzymes in human and animal livers, liver microsomes are usually pooled from a number of […] of the same sex (or mixed-gender). By supplementing the liver microsomes with relevant cofactors and other components it is possible to investigate and distinguish between CYPs, flavin-containing monooxygenase (FMO) and UDP-glucuronosyltransferase (UGT) activities.
Selected compounds of the invention were tested for their stability in mixed-gender human liver microsomes and compared to pertinent prior art compounds.
Under the test conditions applied (1 mg microsomal protein/mL, initial concentration of 10 μM, and incubation for 60 minutes at 37° C.) the following normalized results were obtained.
Background: Liver microsomes are vesicles of endoplasmic reticulum, rich in cytochrome P450 enzymes.
Compound `CCC(C)[C@H](NC(=O)Cc1ccccc1F)C(=O)N[C@]1(C(=O)N[C@H](CNC(=S)NCc2ccncc2)C(C)CC)CCc2[nH]c3c(C(F)(F)F)cccc3c2C1` (stereo partly drawn) [compound 205, (R)-3-{(S)-2-[2-(2-Fluoro-phenyl)-acetylamino]-3-methyl-pentanoylamino}-8-trifluoromethyl-2,3,4,9-tetrahydro-1H-carbazole-3-carboxylic acid [(S)-2-methyl-1-(3-pyridin-4-ylmethyl-thioureidomethyl)-butyl]-amide] returned a Normalized microsomal stability of 800%.

With `CCC(C)[C@H](NC(=O)Cc1ccccc1F)C(=O)N[C@]1(C(=O)N[C@H](C(=O)NN2CCOCC2)C(C)CC)CCc2[nH]c3c(C(F)(F)F)cccc3c2C1` (stereo partly drawn) [compound 219, (R)-3-{(S)-2-[2-(2-Fluoro-phenyl)-acetylamino]-3-methyl-pentanoylamino}-8-trifluoromethyl-2,3,4,9-tetrahydro-1H-carbazole-3-carboxylic acid [(S)-2-methyl-1-(morpholin-4-ylcarbamoyl)-butyl]-amide], the Normalized microsomal stability stood at 452%.

`CCC(C)[C@H](NC(=O)Cc1cccnc1)C(=O)N[C@]1(C(=O)N[C@H](C(N)=S)C(C)CC)CCc2[nH]c3c(C(F)(F)F)cccc3c2C1` (stereo partly drawn) [compound 230, (R)-3-[(S)-3-Methyl-2-(2-pyridin-3-yl-acetylamino)-pentanoylamino]-8-trifluoromethyl-2,3,4,9-tetrahydro-1H-carbazole-3-carboxylic acid ((S)-2-methyl-1-thiocarbamoyl-butyl)-amide]: the Normalized microsomal stability is listed as 1948%.

In turn, `CCC(C)[C@H](NC(=O)Cc1ccncc1)C(=O)N[C@]1(C(=O)N[C@H](C(N)=S)C(C)CC)CCc2[nH]c3c(C(F)(F)F)cccc3c2C1` (stereo partly drawn) [compound 236, (R)-3-[(S)-3-Methyl-2-(2-pyridin-4-yl-acetylamino)-pentanoylamino]-8-trifluoromethyl-2,3,4,9-tetrahydro-1H-carbazole-3-carboxylic acid ((S)-2-methyl-1-thiocarbamoyl-butyl)-amide] showed a Normalized microsomal stability of 1328%.

`CCC(C)[C@H](NC(=O)NCc1ccc(OC)cc1)C(=O)N[C@]1(C(=O)N[C@H](C(N)=S)C(C)CC)CCc2[nH]c3c(C(F)(F)F)cccc3c2C1` (stereo partly drawn) [compound 239, (R)-3-{(S)-2-[3-(4-Methoxy-benzyl)-ureido]-3-methyl-pentanoylamino}-8-trifluoromethyl-2,3,4,9-tetrahydro-1H-carbazole-3-carboxylic acid ((S)-2-methyl-1-thiocarbamoyl-butyl)-amide] gave a Normalized microsomal stability of 307%.

`CCC(C)[C@H](NC(=O)Cc1ccccc1F)C(=O)N[C@]1(C(=O)N[C@H](C(=O)NNC(=O)c2ccccc2)C(C)CC)CCc2[nH]c3c(C(F)(F)F)cccc3c2C1` (stereo partly drawn) [compound 242, (R)-3-{(S)-2-[2-(2-Fluoro-phenyl)-acetylamino]-3-methyl-pentanoylamino}-8-trifluoromethyl-2,3,4,9-tetrahydro-1H-carbazole-3-carboxylic acid [(S)-1-(N′-benzoyl-hydrazinocarbonyl)-2-methyl-butyl]-amide]: the Normalized microsomal stability is 1322%.

With `CCC(C)[C@H](NC(=O)NCc1ccccc1F)C(=O)N[C@]1(C(=O)N[C@H](C(=O)NNc2ccccc2)C(C)CC)CCc2[nH]c3c(C(F)(F)F)cccc3c2C1` (stereo partly drawn) [compound 244, (R)-3-{(S)-2-[3-(2-Fluoro-benzyl)-ureido]-3-methyl-pentanoylamino}-8-trifluoromethyl-2,3,4,9-tetrahydro-1H-carbazole-3-carboxylic acid [(S)-2-methyl-1-(N′-phenyl-hydrazinocarbonyl)-butyl]-amide], the Normalized microsomal stability is 1096%.

In the case of `CC[C@H](C)[C@H](NC(=O)Cc1ccccc1F)C(=O)N[C@]1(C(=O)N[C@H](c2nc(-c3ccccc3)cs2)[C@@H](C)CC)CCc2[nH]c3c(C(F)(F)F)cccc3c2C1` [compound 249, (R)-3-{(2S,3S)-2-[2-(2-Fluoro-phenyl)-acetylamino]-3-methyl-pentanoylamino}-8-trifluoromethyl-2,3,4,9-tetrahydro-1H-carbazole-3-carboxylic acid [(1S,2S)-2-methyl-1-(4-phenyl-thiazol-2-yl)-butyl]-amide], the Normalized microsomal stability turned out to be 1580%.

`CC[C@H](C)[C@H](NC(=O)Cc1ccccc1F)C(=O)N[C@]1(C(=O)N[C@H](c2nc(-c3ccc(OC)cc3)cs2)[C@@H](C)CC)CCc2[nH]c3c(C(F)(F)F)cccc3c2C1` [compound 250, (R)-3-{(2S,3S)-2-[2-(2-Fluoro-phenyl)-acetylamino]-3-methyl-pentanoylamino}-8-trifluoromethyl-2,3,4,9-tetrahydro-1H-carbazole-3-carboxylic acid {(1S,2S)-1-[4-(4-methoxy-phenyl)-thiazol-2-yl]-2-methyl-butyl}-ami] came in with a Normalized microsomal stability of 1491%.

In turn, `CC[C@H](C)[C@H](NC(=O)Cc1ccccc1F)C(=O)N[C@]1(C(=O)N[C@H](c2nc(C(=O)O)cs2)[C@@H](C)CC)CCc2[nH]c3c(C(F)(F)F)cccc3c2C1` [compound 256, 2-{(1S,2S)-1-[((R)-3-{(2S,3S)-2-[2-(2-Fluoro-phenyl)-acetylamino]-3-methyl-pentanoylamino}-8-trifluoromethyl-2,3,4,9-tetrahydro-1H-carbazole-3-carbonyl)-amino]-2-methyl-butyl}-thiazole-4-carboxylic acid] came in with a Normalized microsomal stability of 1194%.

`CCOC(=O)c1csc([C@@H](NC(=O)[C@@]2(NC(=O)[C@@H](NC(=O)NCc3ccccc3F)[C@@H](C)CC)CCc3[nH]c4c(C(F)(F)F)cccc4c3C2)[C@@H](C)CC)n1` [compound 258, 2-{(1S,2S)-1-[((R)-3-{(2S,3S)-2-[3-(2-Fluoro-benzyl)-ureido]-3-methyl-pentanoylamino}-8-trifluoromethyl-2,3,4,9-tetrahydro-1H-carbazole-3-carbonyl)-amino]-2-methyl-butyl}-thiazole-4-carboxylic acid ethyl ester]: the Normalized microsomal stability stood at 1215%.
